COc1cc(CO)ccc1O
solubility (mole fraction)
Details | in acetonitrile | in ethanol | in ethyl acetate | in isopentanol | in isopropanol | in n-butanol | in n-butyl acetate | in n-pentanol
293.15 K | 0.0172 | 0.0442 | 0.0176 | 0.0225 | 0.0284 | 0.0234 | 0.0098 | 0.0214
303.15 K | 0.0262 | 0.0627 | 0.0296 | 0.0302 | 0.0418 | 0.0393 | 0.0177 | 0.0338
313.15 K | 0.0415 | 0.0936 | 0.0393 | 0.0447 | 0.0578 | 0.0538 | 0.027 | 0.049
323.15 K | 0.0713 | 0.142 | 0.0682 | 0.0652 | 0.0957 | 0.0902 | 0.0428 | 0.0728
333.15 K | 0.127 | 0.205 | 0.1 | 0.0912 | 0.149 | 0.134 | 0.0653 | 0.102
343.15 K | 0.22 | 0.317 | 0.163 | 0.14 | 0.237 | 0.182 | 0.107 | 0.155
